Measurements published in patent publication US6737383B1, “Herbicidal oxadiazolidines” (priority 1999, dated 2004).

Assays:
wild oat = assay: Test B pre/postemergence wild oat; assay type: in vivo, Avena fatua; conditions: for Plant response rating, Wild oats: Postemergence
Summary of the method: (§1)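 Herbicidal effect was estimated by eye on a ten-point control scale after plants spent twelve to sixteen days in a greenhouse following soil or foliar treatment. Foliar sprays targeted plants at one to four leaves; all doses were formulated in a non-phytotoxic solvent with surfactant.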

surinam grass = assay: Test B pre/postemergence surinam grass; assay type: in vivo, Brachiaria decumbens
Summary of the method: as §1

crabgrass = assay: Test B pre/postemergence crabgrass; assay type: in vivo, Digitaria sanguinalis
Summary of the method: as §1

cocklebur = assay: Test B pre/postemergence cocklebur; assay type: in vivo, Xanthium strumarium
Summary of the method: as §1

purple nutsedge = assay: Test B pre/postemergence purple nutsedge; assay type: in vivo, Cyperus rotundus
Summary of the method: as §1

blackgrass = assay: Test B pre/postemergence blackgrass; assay type: in vivo, Alopecurus myosuroides
Summary of the method: as §1

wheat = assay: Test B pre/postemergence wheat; assay type: in vivo, Triticum aestivum; conditions: for Plant response rating, Wheat: Postemergence
Summary of the method: as §1

corn = assay: Test B pre/postemergence corn; assay type: in vivo, Zea mays
Summary of the method: as §1

rape = assay: Test B pre/postemergence rape; assay type: in vivo, Brassica napus
Summary of the method: as §1

bedstraw = assay: Test B pre/postemergence bedstraw; assay type: in vivo, Galium aparine
Summary of the method: as §1

morningglory = assay: Test B pre/postemergence morningglory; assay type: in vivo, Ipomoea hederacea
Summary of the method: as §1

pigweed = assay: Test B pre/postemergence pigweed; assay type: in vivo, Amaranthus retroflexus; conditions: for Plant response rating, Redroot pigweed: Postemergence
Summary of the method: as §1

velvetleaf = assay: Test B pre/postemergence velvetleaf; assay type: in vivo, Abutilon theophrasti; conditions: for Plant response rating, Velvetleaf: Postemergence
Summary of the method: as §1

giant foxtail = assay: Test B pre/postemergence giant foxtail; assay type: in vivo, Setaria faberii
Summary of the method: as §1

soybean = assay: Test B pre/postemergence soybean; assay type: in vivo, Glycine max; conditions: for Plant response rating, Soybean: Postemergence; for Plant response rating, Soybean / Soybean plant response rating: scale of 0 to 10 where 0 is no effect and 10 is complete control
Summary of the method: as §1

[1] = Rate 125 g/ha, scale of 0 to 10 where 0 is no effect and 10 is complete control
[2] = Rate 500 g/ha, scale of 0 to 10 where 0 is no effect and 10 is complete control
[3] = Preemergence, Rate 62 g/ha, scale 0 to 10 (0 no effect, 10 complete control)
[4] = Preemergence, Rate 125 g/ha, scale of 0 to 10 where 0 is no effect and 10 is complete control
[5] = Preemergence, Rate 500 g/ha, scale of 0 to 10 where 0 is no effect and 10 is complete control
[6] = Rate 250 g/ha, scale of 0 to 10 where 0 is no effect and 10 is complete control
[7] = Postemergence, Rate 62 g/ha, scale of 0 to 10, 0 is no effect, 10 is complete control
[8] = Postemergence, Rate 125 g/ha, scale of 0 to 10 where 0 is no effect and 10 is complete control
[9] = Postemergence, Rate 500 g/ha, scale of 0 to 10 where 0 is no effect and 10 is complete control
[10] = Rate 250 g/ha, Postemergence, scale of 0 to 10 where 0 is no effect and 10 is complete control

In the case of `CC(C)N(C(=O)n1oc(=O)n(CC2CCC2)c1=O)c1ccccc1` [Compound 580], the “Plant response rating, Wild oats” value (wild oat; [1]) is reported as 0, the “Plant response rating, Wild oats” value (wild oat; [2]) is reported as 7 and the “Wild oats plant response rating” value (wild oat; [3]) is reported as 0. The “Wild oats plant response rating” value (wild oat; [4]) was 0, the “Wild oats plant response rating (0 to 10 scale)” value (wild oat; Preemergence, Rate 250 g/ha) was 2 and the “Wild oats plant response rating” value (wild oat; [5]) was 5. The “Plant response rating, Wild oats” value (wild oat; [6]) was 3, the “B. signalgrass plant response rating” value (surinam grass; [7]) was 0 and the “Plant response rating, B. signalgrass” value (surinam grass; [8]) was 2. For the same molecule, the “Plant response rating, B. signalgrass” value (surinam grass; [9]) was 8, the “B. signalgrass plant response rating” value (surinam grass; [3]) was 2 and the “B. signalgrass plant response rating” value (surinam grass; [4]) was 6. For the same molecule, the “B. signalgrass plant response rating (0 to 10 scale, 0 is no effect, 10 is complete control)” value (surinam grass; Preemergence, Rate 250 g/ha) was 6, the “B. signalgrass plant response rating” value (surinam grass; [5]) was 9 and the “Plant response rating, B. signalgrass” value (surinam grass; [10]) was 5. For the same molecule, the “Crabgrass plant response rating” value (crabgrass; [7]) was 0, the “Plant response rating, Crabgrass” value (crabgrass; [8]) was 3 and the “Crabgrass plant response rating” value (crabgrass; [3]) was 6. The “Crabgrass plant response rating” value (crabgrass; [4]) was 6, the “Crabgrass plant response rating (0 to 10 scale)” value (crabgrass; Preemergence, Rate 250 g/ha) was 9 and the “Crabgrass plant response rating” value (crabgrass; [5]) was 9. For the same molecule, the “Plant response rating, Crabgrass” value (crabgrass; [10]) was 9, the “Cocklebur plant response rating” value (cocklebur; [7]) was 3 and the “Plant response rating, Cocklebur” value (cocklebur; [8]) was 3. The “Plant response rating, Cocklebur” value (cocklebur; [9]) was 6, the “Cocklebur plant response rating” value (cocklebur; [3]) was 0 and the “Cocklebur plant response rating” value (cocklebur; [4]) was 0. The “Cocklebur plant response rating (0 to 10 scale)” value (cocklebur; Preemergence, Rate 250 g/ha) was 0, the “Cocklebur plant response rating” value (cocklebur; [5]) was 3 and the “Plant response rating, Cocklebur” value (cocklebur; [10]) was 3. The “Nutsedge plant response rating” value (purple nutsedge; [7]) was 0, the “Plant response rating, Nutsedge” value (purple nutsedge; [8]) was 0 and the “Nutsedge plant response rating” value (purple nutsedge; [3]) was 0. The “Nutsedge plant response rating” value (purple nutsedge; [4]) was 0, the “Nutsedge plant response rating (0 to 10 scale)” value (purple nutsedge; Preemergence, Rate 250 g/ha) was 0 and the “Nutsedge plant response rating” value (purple nutsedge; [5]) was 5. The “Blackgrass plant response rating” value (blackgrass; [7]) was 2, the “Plant response rating, Blackgrass” value (blackgrass; [8]) was 6 and the “Plant response rating, Blackgrass” value (blackgrass; [9]) was 7. For the same molecule, the “Blackgrass plant response rating” value (blackgrass; [3]) was 0, the “Blackgrass plant response rating” value (blackgrass; [4]) was 3 and the “Blackgrass plant response rating (0 to 10 scale)” value (blackgrass; Preemergence, Rate 250 g/ha) was 7. The “Blackgrass plant response rating” value (blackgrass; [5]) was 7, the “Plant response rating, Blackgrass” value (blackgrass; [10]) was 7 and the “Plant response rating, Wheat” value (wheat; [1]) was 0. The “Plant response rating, Wheat” value (wheat; [2]) was 3, the “Wheat plant response rating” value (wheat; [3]) was 0 and the “Wheat plant response rating” value (wheat; [4]) was 0. For the same molecule, the “Wheat plant response rating (0 to 10 scale)” value (wheat; Preemergence, Rate 250 g/ha) was 2, the “Wheat plant response rating” value (wheat; [5]) was 5 and the “Plant response rating, Wheat” value (wheat; [6]) was 0. The “Corn plant response rating” value (corn; [7]) was 0, the “Plant response rating, Corn” value (corn; [8]) was 0 and the “Plant response rating, Corn” value (corn; [9]) was 0. The “Corn plant response rating” value (corn; [3]) was 0, the “Corn plant response rating” value (corn; [4]) was 0 and the “Corn plant response rating (0 to 10 scale)” value (corn; Preemergence, Rate 250 g/ha) was 2. For the same molecule, the “Corn plant response rating” value (corn; [5]) was 5, the “Plant response rating, Corn” value (corn; [10]) was 0 and the “Rape plant response rating” value (rape; [7]) was 4. The “Plant response rating, Rape” value (rape; [8]) was 6, the “Plant response rating, Rape” value (rape; [9]) was 8 and the “Rape plant response rating” value (rape; [3]) was 0. For the same molecule, the “Rape plant response rating” value (rape; [4]) was 3, the “Rape plant response rating (0 to 10 scale)” value (rape; Preemergence, Rate 250 g/ha) was 7 and the “Rape plant response rating” value (rape; [5]) was 8. The “Plant response rating, Rape” value (rape; [10]) was 7, the “Bedstraw plant response rating” value (bedstraw; [7]) was 3 and the “Plant response rating, Bedstraw” value (bedstraw; [9]) was 9. For the same molecule, the “Bedstraw plant response rating” value (bedstraw; [3]) was 0, the “Bedstraw plant response rating” value (bedstraw; [4]) was 4 and the “Bedstraw plant response rating (0 to 10 scale)” value (bedstraw; Preemergence, Rate 250 g/ha) was 6. For the same molecule, the “Bedstraw plant response rating” value (bedstraw; [5]) was 6, the “Plant response rating, Bedstraw” value (bedstraw; [10]) was 0 and the “Morningglory plant response rating” value (morningglory; [7]) was 7. For the same molecule, the “Plant response rating, Morningglory” value (morningglory; [8]) was 7, the “Plant response rating, Morningglory” value (morningglory; [9]) was 10 and the “Morningglory plant response rating” value (morningglory; [3]) was 0. For the same molecule, the “Morningglory plant response rating” value (morningglory; [4]) was 0, the “Morningglory plant response rating (0 to 10 scale)” value (morningglory; Preemergence, Rate 250 g/ha) was 0 and the “Morningglory plant response rating” value (morningglory; [5]) was 0. The “Plant response rating, Morningglory” value (morningglory; [10]) was 8, the “Plant response rating, Redroot pigweed” value (pigweed; [1]) was 5 and the “Plant response rating, Redroot pigweed” value (pigweed; [2]) was 9. The “Redroot pigweed plant response rating” value (pigweed; [3]) was 9, the “Redroot pigweed plant response rating” value (pigweed; [4]) was 10 and the “Redroot pigweed plant response rating (0 to 10 scale)” value (pigweed; Preemergence, Rate 250 g/ha) was 10. For the same molecule, the “Redroot pigweed plant response rating” value (pigweed; [5]) was 10, the “Plant response rating, Redroot pigweed” value (pigweed; [6]) was 5 and the “Plant response rating, Velvetleaf” value (velvetleaf; [1]) was 2. The “Plant response rating, Velvetleaf” value (velvetleaf; [2]) was 3, the “Velvetleaf plant response rating” value (velvetleaf; [3]) was 0 and the “Velvetleaf plant response rating” value (velvetleaf; [4]) was 0. The “Velvetleaf plant response rating (0 to 10 scale)” value (velvetleaf; Preemergence, Rate 250 g/ha) was 2, the “Velvetleaf plant response rating” value (velvetleaf; [5]) was 5 and the “Plant response rating, Velvetleaf” value (velvetleaf; [6]) was 2. The “Giant foxtail plant response rating” value (giant foxtail; [7]) was 0, the “Plant response rating, Giant foxtail” value (giant foxtail; [8]) was 6 and the “Plant response rating, Giant foxtail” value (giant foxtail; [9]) was 8. For the same molecule, the “Giant foxtail plant response rating” value (giant foxtail; [3]) was 9, the “Giant foxtail plant response rating” value (giant foxtail; [4]) was 9 and the “Giant foxtail plant response rating (0 to 10 scale)” value (giant foxtail; Preemergence, Rate 250 g/ha) was 10. For the same molecule, the “Giant foxtail plant response rating” value (giant foxtail; [5]) was 10, the “Plant response rating, Giant foxtail” value (giant foxtail; [10]) was 8 and the “Plant response rating, Soybean” value (soybean; Rate 125 g/ha) was 4. For the same molecule, the “Plant response rating, Soybean” value (soybean; Rate 500 g/ha) was 4, the “Soybean plant response rating” value (soybean; Preemergence, Rate 125 g/ha) was 0 and the “Soybean plant response rating (0 to 10 scale)” value (soybean; Preemergence, Rate 250 g/ha) was 0. The “Soybean plant response rating” value (soybean; Preemergence, Rate 500 g/ha) was 0 and the “Plant response rating, Soybean” value (soybean; Rate 250 g/ha) was 4.
